We go through eleven compounds from PubChem BioAssay (NCI).

Test systems include A549 NSCLC; ACHN renal; COLO 205 colon; M14 melanoma; MOLT-4 leukemia; SN12C renal; SW-620 colon; U251 CNS; UACC-257 melanoma; NCI-H23 lung.
Common to all, as to experiment: NCI tumour cell line growth inhibition, 48 h

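Test compounds were applied to cells in 96-well plates for 48 hours at 5 doses. GI50 marks 50% less growth. TGI: concentration producing complete growth inhibition.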 Bounds are passed on as bounds.

As for `COc1c(C)n(CCO)ccc1=O`, the TGI with A549 NSCLC, in the test with ACHN renal, in the test with COLO 205 colon, with M14 melanoma, with MOLT-4 leukemia and in the test with SN12C renal was more than 100 µM each time. Also, the TGI in the test with SW-620 colon, in the test on U251 CNS and with UACC-257 melanoma was more than 100 µM throughout.

Turning to `COC(=O)c1cc2c(o1)-c1nccc3c1c(nc1ccccc13)C2=O`, the GI50 was 4.66 µM in the test with A549 NSCLC; 2.27 µM with ACHN renal; 14.9 µM in the test on COLO 205 colon; 2.31 µM in the test with M14 melanoma; 2.64 µM in the test on MOLT-4 leukemia; 5.66 µM in the test on NCI-H23 lung. Moreover, the GI50 with SN12C renal was 4.04 µM; in the test on SW-620 colon it was 3.78 µM; in the test with U251 CNS it was 5.05 µM; in the test with UACC-257 melanoma, 3.68 µM. Also, the TGI with A549 NSCLC amounted to 21.1 µM; in the test with ACHN renal, 14.7 µM; in the test on COLO 205 colon, 29.3 µM; in the test on M14 melanoma it was 10.2 µM; in the test on MOLT-4 leukemia, 7.28 µM; in the test with NCI-H23 lung, 26.7 µM. Further, the TGI in the test on SN12C renal worked out at 18.1 µM; in the test with SW-620 colon, 17.5 µM; in the test with U251 CNS, 38.9 µM; in the test with UACC-257 melanoma, 15.3 µM.

Consider `N[C@H](CCC(=O)N[C@@H](Cc1c[nH]c2ccccc12)C(=O)O)C(=O)O`, for which the GI50 in the test with A549 NSCLC, in the test with ACHN renal, with COLO 205 colon, in the test on M14 melanoma, in the test with MOLT-4 leukemia and with NCI-H23 lung was more than 100 µM each time. The GI50 in the test with SN12C renal, in the test on SW-620 colon, with U251 CNS and in the test on UACC-257 melanoma was more than 100 µM each time. The TGI with A549 NSCLC, with ACHN renal, with COLO 205 colon, in the test on M14 melanoma, in the test with MOLT-4 leukemia and with NCI-H23 lung was more than 100 µM each time. For the same compound, the TGI in the test on SN12C renal, in the test on SW-620 colon, with U251 CNS and in the test with UACC-257 melanoma was more than 100 µM each time.

As to `CCOC(=O)NC(=O)c1cn(C(CC)COC(=O)NCCCCCCNC(=O)OCC(CC)n2cc(C(=O)NC(=O)OCC)c(=O)[nH]c2=O)c(=O)[nH]c1=O` (stereo not drawn), the TGI in the test on A549 NSCLC, in the test on ACHN renal, in the test with COLO 205 colon, with M14 melanoma, with MOLT-4 leukemia and in the test with SN12C renal was more than 100 µM in each case. The TGI with SW-620 colon, with U251 CNS and with UACC-257 melanoma was more than 100 µM each time.

In the case of `COC(=O)/C(=N/O)C(C(=O)C=C(C)C)C(=O)C(=O)Nc1nc2ccc([N+](=O)[O-])cc2s1` (stereo not drawn), the TGI in the test on A549 NSCLC was more than 100 µM; in the test on ACHN renal, 67.1 µM; with COLO 205 colon, more than 100 µM; with M14 melanoma it was more than 100 µM; in the test with MOLT-4 leukemia, 72.9 µM; with NCI-H23 lung it was 83.2 µM. For the same compound, the TGI with SN12C renal, with SW-620 colon, with U251 CNS and in the test with UACC-257 melanoma was more than 100 µM throughout.

As for `Cc1cc(N/N=C/c2ccccn2)nc2ccccc12`, the GI50 with A549 NSCLC is 0.361 µM; in the test on ACHN renal it was 0.347 µM; in the test on COLO 205 colon, 0.367 µM; in the test on M14 melanoma, 0.413 µM; in the test with MOLT-4 leukemia, 0.352 µM; with NCI-H23 lung, 0.831 µM. In addition, the GI50 in the test with SN12C renal is 0.368 µM; with SW-620 colon, 0.588 µM; with U251 CNS it was 0.378 µM; in the test on UACC-257 melanoma, 0.395 µM. Moreover, the TGI in the test on A549 NSCLC is 12.3 µM; with ACHN renal, 11.1 µM; in the test with COLO 205 colon, 12.4 µM; in the test with M14 melanoma, 5.62 µM; in the test with MOLT-4 leukemia it was 4.98 µM; in the test on NCI-H23 lung, 22.2 µM. Further, the TGI in the test with SN12C renal stood at 17.3 µM; in the test on SW-620 colon it was 19.6 µM; in the test with U251 CNS, 10.5 µM; in the test with UACC-257 melanoma it was 5.02 µM.

For the compound `O=C(/C=C/c1ccccc1)c1ccccc1`, the TGI is more than 10 µM with A549 NSCLC; more than 10 µM with ACHN renal; more than 10 µM with COLO 205 colon; more than 10 µM in the test on M14 melanoma; more than 3.16 µM in the test on MOLT-4 leukemia; more than 10 µM in the test on NCI-H23 lung. Besides, the TGI with SN12C renal, with SW-620 colon, in the test on U251 CNS and with UACC-257 melanoma was more than 10 µM throughout.

Consider `NCCNCC1CCNCC1`, for which the TGI in the test with A549 NSCLC, in the test with ACHN renal, in the test on COLO 205 colon, in the test on M14 melanoma, with MOLT-4 leukemia and in the test with NCI-H23 lung was more than 100 µM throughout. The TGI in the test with SN12C renal, in the test on SW-620 colon, in the test with U251 CNS and in the test with UACC-257 melanoma was more than 100 µM throughout.

With `Cc1cc2c(c(C(N)=O)c1C)-c1ccccc1C2=O`, the TGI with A549 NSCLC, in the test with ACHN renal, in the test with COLO 205 colon, with M14 melanoma, in the test on MOLT-4 leukemia and in the test with NCI-H23 lung was more than 100 µM throughout. Moreover, the TGI in the test with SN12C renal, with SW-620 colon, in the test with U251 CNS and with UACC-257 melanoma was more than 100 µM each time.

With `Cn1c(=O)c2c(nc(C(=N)SCC(=O)O)n2C)n(C)c1=O`, the TGI with A549 NSCLC was more than 100 µM; in the test on ACHN renal it was more than 100 µM; in the test with COLO 205 colon, 71.5 µM; in the test on M14 melanoma, more than 100 µM; in the test on MOLT-4 leukemia, 50.9 µM; in the test on NCI-H23 lung, more than 100 µM. Besides, the TGI in the test with SN12C renal, in the test on SW-620 colon, in the test on U251 CNS and in the test on UACC-257 melanoma was more than 100 µM each time.

For `ClCCN(CCCl)c1ccc(CNc2ccccc2)cc1`, the GI50 in the test with A549 NSCLC is 4.36 µM; with ACHN renal, 2.76 µM; in the test on COLO 205 colon, 20.8 µM; in the test with M14 melanoma, 8.27 µM; with MOLT-4 leukemia, 2.81 µM; in the test with NCI-H23 lung it was 9.59 µM. Also, the GI50 in the test with SN12C renal was 4 µM; in the test with SW-620 colon it was 10.6 µM; with U251 CNS it was 4.43 µM; in the test on UACC-257 melanoma it was 12.7 µM. In addition, the TGI in the test with A549 NSCLC, in the test on ACHN renal, with COLO 205 colon, in the test on M14 melanoma, in the test with MOLT-4 leukemia and in the test with NCI-H23 lung was more than 100 µM in each case. The TGI with SN12C renal, in the test with SW-620 colon, with U251 CNS and with UACC-257 melanoma was more than 100 µM each time.
